Data published in BindingDB's records for doi:10.1021/acs.jnatprod.9b01022 (Taipei Chang Gung Memorial Hospital, 2020).
pIC50: −log10 of the molar value.

Key:
[1] = Reversal of human ABCC1-mediated multidrug resistance in HEK293/MRP1 cells assessed as effect on etoposide-induced cytotoxicity by measuring etoposide IC50 at 1 uM after 72 hrs by CCK8 assay (Rvb = 63.34 +/- 7.92 uM)
[2] = Reversal of human ABCC1-mediated multidrug resistance in HEK293/MRP1 cells assessed as effect on etoposide-induced cytotoxicity by measuring etoposide IC50 at 2 uM after 72 hrs by CCK8 assay (Rvb = 63.34 +/- 7.92 uM)
[3] = Reversal of human ABCC1-mediated multidrug resistance in HEK293/MRP1 cells assessed as effect on etoposide-induced cytotoxicity by measuring etoposide IC50 at 3 uM after 72 hrs by CCK8 assay (Rvb = 63.34 +/- 7.92 uM)
[4] = Reversal of human ABCC1-mediated multidrug resistance in HEK293/MRP1 cells assessed as effect on etoposide-induced cytotoxicity by measuring etoposide IC50 at 0.5 uM after 72 hrs by CCK8 assay (Rvb = 63.34 +/- 7.92 uM)
[5] = Reversal of human ABCG2-mediated multidrug resistance in HEK293/R482 cells assessed as effect on topotecan-induced cytotoxicity by measuring topotecan IC50 at 1 uM after 72 hrs by CCK8 assay (Rvb = 201.31 +/- 25.89 nM)
[6] = Reversal of human ABCG2-mediated multidrug resistance in HEK293/R482 cells assessed as effect on topotecan-induced cytotoxicity by measuring topotecan IC50 at 2 uM after 72 hrs by CCK8 assay (Rvb = 201.31 +/- 25.89 nM)
[7] = Reversal of human ABCG2-mediated multidrug resistance in HEK293/R482 cells assessed as effect on topotecan-induced cytotoxicity by measuring topotecan IC50 at 3 uM after 72 hrs by CCK8 assay (Rvb = 201.31 +/- 25.89 nM)
[8] = Reversal of human ABCG2-mediated multidrug resistance in HEK293/R482 cells assessed as effect on topotecan-induced cytotoxicity by measuring topotecan IC50 at 0.5 uM after 72 hrs by CCK8 assay (Rvb = 201.31 +/- 25.89 nM)
[9] = Reversal of human ABCG2-mediated multidrug resistance in HEK293/R482 cells assessed as effect on mitoxantrone-induced cytotoxicity by measuring mitoxantrone IC50 at 1 uM after 72 hrs by CCK8 assay (Rvb = 50.66 +/- 6.88 nM)
[10] = Reversal of human ABCG2-mediated multidrug resistance in HEK293/R482 cells assessed as effect on mitoxantrone-induced cytotoxicity by measuring mitoxantrone IC50 at 2 uM after 72 hrs by CCK8 assay (Rvb = 50.66 +/- 6.88 nM)
[11] = Reversal of human ABCG2-mediated multidrug resistance in HEK293/R482 cells assessed as effect on mitoxantrone-induced cytotoxicity by measuring mitoxantrone IC50 at 3 uM after 72 hrs by CCK8 assay (Rvb = 50.66 +/- 6.88 nM)
[12] = Reversal of human ABCG2-mediated multidrug resistance in HEK293/R482 cells assessed as effect on mitoxantrone-induced cytotoxicity by measuring mitoxantrone IC50 at 0.5 uM after 72 hrs by CCK8 assay (Rvb = 50.66 +/- 6.88 nM)
[13] = Reversal of ABCG2 (unknown origin)-mediated multidrug resistance in human S1-M1-80 cells assessed as effect on topotecan-induced cytotoxicity by measuring topotecan IC50 at 1 uM after 72 hrs by MTT assay (Rvb = 10.14 +/- 2.820 uM)
[14] = Reversal of ABCG2 (unknown origin)-mediated multidrug resistance in human S1-M1-80 cells assessed as effect on topotecan-induced cytotoxicity by measuring topotecan IC50 at 2 uM after 72 hrs by MTT assay (Rvb = 10.14 +/- 2.820 uM)
[15] = Reversal of ABCG2 (unknown origin)-mediated multidrug resistance in human S1-M1-80 cells assessed as effect on topotecan-induced cytotoxicity by measuring topotecan IC50 at 3 uM after 72 hrs by MTT assay (Rvb = 10.14 +/- 2.820 uM)
[16] = Reversal of ABCG2 (unknown origin)-mediated multidrug resistance in human S1-M1-80 cells assessed as effect on topotecan-induced cytotoxicity by measuring topotecan IC50 at 0.5 uM after 72 hrs by MTT assay (Rvb = 10.14 +/- 2.820 uM)
[17] = Reversal of ABCG2 (unknown origin)-mediated multidrug resistance in human H460-MX20 cells assessed as effect on topotecan-induced cytotoxicity by measuring topotecan IC50 at 1 uM after 72 hrs by MTT assay (Rvb = 1319.20 +/- 356.14 nM)
[18] = Reversal of ABCG2 (unknown origin)-mediated multidrug resistance in human H460-MX20 cells assessed as effect on topotecan-induced cytotoxicity by measuring topotecan IC50 at 2 uM after 72 hrs by MTT assay (Rvb = 1319.20 +/- 356.14 nM)
[19] = Reversal of ABCG2 (unknown origin)-mediated multidrug resistance in human H460-MX20 cells assessed as effect on topotecan-induced cytotoxicity by measuring topotecan IC50 at 3 uM after 72 hrs by MTT assay (Rvb = 1319.20 +/- 356.14 nM)
[20] = Reversal of ABCG2 (unknown origin)-mediated multidrug resistance in human S1-M1-80 cells assessed as effect on mitoxantrone-induced cytotoxicity by measuring mitoxantrone IC50 at 1 uM after 72 hrs by MTT assay (Rvb = 73.62 +/- 7.20 uM)
[21] = Reversal of ABCG2 (unknown origin)-mediated multidrug resistance in human S1-M1-80 cells assessed as effect on mitoxantrone-induced cytotoxicity by measuring mitoxantrone IC50 at 2 uM after 72 hrs by MTT assay (Rvb = 73.62 +/- 7.20 uM)
[22] = Reversal of ABCG2 (unknown origin)-mediated multidrug resistance in human S1-M1-80 cells assessed as effect on mitoxantrone-induced cytotoxicity by measuring mitoxantrone IC50 at 3 uM after 72 hrs by MTT assay (Rvb = 73.62 +/- 7.20 uM)
[23] = Reversal of ABCG2 (unknown origin)-mediated multidrug resistance in human H460-MX20 cells assessed as effect on topotecan-induced cytotoxicity by measuring topotecan IC50 at 0.5 uM after 72 hrs by MTT assay (Rvb = 1319.20 +/- 356.14 nM)
[24] = Reversal of ABCG2 (unknown origin)-mediated multidrug resistance in human S1-M1-80 cells assessed as effect on mitoxantrone-induced cytotoxicity by measuring mitoxantrone IC50 at 0.5 uM after 72 hrs by MTT assay (Rvb = 73.62 +/- 7.20 uM)
[25] = Reversal of ABCG2 (unknown origin)-mediated multidrug resistance in human H460-MX20 cells assessed as effect on mitoxantrone-induced cytotoxicity by measuring mitoxantrone IC50 at 1 uM after 72 hrs by MTT assay (Rvb = 1160.60 +/- 365.72 nM)
[26] = Reversal of ABCG2 (unknown origin)-mediated multidrug resistance in human H460-MX20 cells assessed as effect on mitoxantrone-induced cytotoxicity by measuring mitoxantrone IC50 at 2 uM after 72 hrs by MTT assay (Rvb = 1160.60 +/- 365.72 nM)
[27] = Reversal of ABCG2 (unknown origin)-mediated multidrug resistance in human H460-MX20 cells assessed as effect on mitoxantrone-induced cytotoxicity by measuring mitoxantrone IC50 at 3 uM after 72 hrs by MTT assay (Rvb = 1160.60 +/- 365.72 nM)
[28] = Reversal of ABCG2 (unknown origin)-mediated multidrug resistance in human H460-MX20 cells assessed as effect on mitoxantrone-induced cytotoxicity by measuring mitoxantrone IC50 at 0.5 uM after 72 hrs by MTT assay (Rvb = 1160.60 +/- 365.72 nM)

With C=CC(C)(C)c1cc(/C=C/C(=O)c2ccc(O)cc2)c(OC)cc1O [3-(4-hydroxy-2-methoxy-5-(2-methylbut-3-en-2-yl)phenyl)-1-(4-hydroxyphenyl)prop-2-en-1-one] the pIC50 [1] was 4.31, the pIC50 [2] was 4.18 and the pIC50 [3] was 4.25. The pIC50 [4] was 4.27, the pIC50 [5] was 7.29 and the pIC50 [6] was 7.36. It also gave a pIC50 [7] of 7.38, a pIC50 [8] of 7.05 and a pIC50 [9] of 8.15. It also gave a pIC50 [10] of 8.11, a pIC50 [11] of 8.21 and a pIC50 [12] of 7.72. The pIC50 [13] was 6.21, the pIC50 [14] was 6.39 and the pIC50 [15] was 6.51. It also gave a pIC50 [16] of 5.99, a pIC50 [17] of 6.84 and a pIC50 [18] of 6.83. It also gave a pIC50 [19] of 6.89, a pIC50 [20] of 5.17 and a pIC50 [21] of 5.58. The pIC50 [22] was 5.82, the pIC50 [23] was 6.44 and the pIC50 [24] was 4.40. It also gave a pIC50 [25] of 7.07, a pIC50 [26] of 7.12 and a pIC50 [27] of 7.15. The pIC50 [28] was 6.35.
